Test results: patent US10172951B2, “Dendrimer based nanodevices for therapeutic and imaging purposes” (priority 2009, dated 2019)
Entries after “also recorded” stand apart in the source; their conditions may differ.

Columns and labels:
[1] = Stability (oxidation) of free NAC and free GSH in PBS; type: physicochemical; details: over 17 hours
Protocol: (§1) The conjugates were also analyzed in the absence of GSH to verify the stability of the disulfide linkage at physiological pH. […] The extent of the release of drug from both dendrimer-NAC conjugates was also analyzed at plasma and intracellular GSH concentrations. The conjugates and the GSH in required amounts were added to PBS solution, and the solution was analyzed at various time intervals by HPLC for up to 17 hours. UV absorbance peak areas were used to determine the concentrations of each of the species in the solution, based on appropriate calibration curves.

[2] = cited from earlier work
BV-2 cells [3] = experiment: NO release (nitrite) assay in LPS-activated BV-2 cells (Example 18); type: cell-based, mouse; details: for Nitrite reduction (%): 72 hours LPS following 3 hours treatment; for reduction of nitrite release: 24 hours LPS following 3 hours pre-treatment
Protocol: (§2) BV-2 cells (passage 16) were seeded in 24 well plates at 10^5/mL/well and incubated for 24 hours. The medium was removed, and the cells were exposed to 100 ng/mL of LPS and varying concentrations of PAMAM-(COOH)46-(NAC)18 conjugate in 500 μL of serum free medium for 3 hours. The medium was removed again, and 500 μL of fresh serum free medium containing 100 ng/mL of LPS was added and incubated for 24 hours and 72 hours. Control treatment with varying concentrations of free NAC, positive control with 100 ng/mL of LPS induction, but negative control without any LPS induction and treatment were also studied. The culture medium was collected at specific time intervals of 24 hours and 72 hours, and spun at 1500 rpm for 5 min. The supernatant was stored at −80° C. for further assays.
Production of NO was assayed by measuring the levels of nitrite, the stable NO metabolite, in the culture medium. Accumulation of nitrite in the medium was determined by colorimetric assay with Griess reagent system, which uses sulfanilamide and N-(1-Naphthyl)-ethylene diamine. From the treated cells in the medium, 100 μL of the supernatant was incubated with 50 μL of Griess reagent 1 (sulfanilamide) and 50 μL of Griess reagent 2 N-(1-Naphthyl)-ethylenediamine for 10 min at room temperature. The absorbance at 540 nm was then measured, and nitrite concentration was determined using a calibration curve prepared using nitrite standards.

BV-2 cells [4] = experiment: TNF-α ELISA in LPS-activated BV-2 cells (Example 18); type: cell-based, mouse; details: 72 hours LPS following 3 hours treatment
Protocol: as §2
The procedure for cell culture and drug treatment was the same as described in previous section. TNF-α secretion was measured using an ELISA kit according to the manufacturer's instructions. In brief, 50 μL of supernatant from each sample was added in 96-well ELISA plates. Biotinylated antibody reagent was applied to each well and the plate was incubated at room temperature for 2 hours. After washing the plate with PBS-Tween 20, diluted streptavidin-HRP was added, and the plate was incubated at room temperature for 30 min. After washing the plate, the premixed TMB substrate solution was added. The plate was developed in the dark for 30 min, and read at 450 nm using a microplate reader. The concentration of TNF-α was calculated using murine rTNF-α as standard.

BV-2 cells [5] = experiment: NO release assay (nitrite, Griess), PEG-NAC conjugates; type: cell-based, mouse; details: highest concentration 5 mM
Protocol: (A) BV-2 cells (passage 22) were co-treated with 100 ng/mL of LPS and the indicated concentration of NAC, PEG-NAC conjugate 1 and its corresponding PEG for 72 hours. (B) BV-2 cells were co-treated with 100 ng/mL of LPS and the indicated concentration of NAC, PEG-NAC conjugate 2 its corresponding PEG for 72 hours. Nitrite in culture medium was measured using Griess reagent system.
Production of NO was assayed by measuring the levels of nitrite, the stable NO metabolite, in supernatant. Accumulation of nitrite in supernatant was determined by colorimetric assay with Griess reagent system, which uses sulfanilamide and N-(1-Naphthyl)-ethylene diamine. 100 μL of the supernatant was incubated with 50 μL of Griess reagent 1 (sulfanilamide) and 50 μL of Griess reagent 2 N-(1-Naphthyl)-ethylenediamine for 10 min at room temperature. The absorbance at 540 nm was then measured, and nitrite concentration was determined using a curve calibrated with nitrite standards.

microglial cells = experiment: Cytotoxicity assay in microglial cells (Example 18); type: cell-based, mouse; details: concentrations tested in vitro
BV-2 cells [6] = experiment: ROS assay, percent reduction in H2O2 in LPS-treated BV-2 cells (Example 19); type: cell-based, mouse; details: co-treatment with LPS
Protocol: Cells were treated with lipopolysaccharide (LPS) to induce the production of ROS. The cells were treated with LPS (100 ng/ml) and either NAC, PAMAM-S—S-NAC, or free PAMAM-NH2 dendrimers at appropriate concentrations to study the efficacy of the conjugates for reducing the ROS concentrations. In order to quantify the efficacy of conjugates, H2O2 released from BV-2 cells (ROS) was measured using the Amplex Red Hydrogen Peroxide/Peroxidase Assay Kit using previously established procedures.

BV-2 cells [7] = experiment: ROS assay (H2O2, Amplex Red), PEG-NAC conjugates; type: cell-based, mouse; details: highest concentration 5 mM
Protocol: (A) BV-2 cells (passage 22) were co-treated with 100 ng/mL of LPS and the indicated concentration of NAC, PEG-NAC conjugate 1 and its corresponding PEG for 72 hours. (B) BV-2 cells were co-treated with 100 ng/mL of LPS and the indicated concentration of NAC, PEG-NAC conjugate 2 and its corresponding PEG for 72 hours. The amount of ROS released into the media was measured using Amplex Red.
H2O2 released from BV-2 cells was measured using 10-acetyl-3,7-dihydroxyphenoxazine (Amplex Red), following the manufacturer's instructions. Briefly, the procedure for cell culture and drug treatment was the same as described in previous section. The supernatant was mixed with 0.05 U/mL of horseradish peroxidase and 1 μM of Amplex Red in 96-well plates. After 30 min incubation, the fluorescence intensity was measured using spectrofluorometry. Excitation and emission wavelengths were 530 nm and 590 nm.

[8] = cited from earlier work; remark: listed apart in the source
[9] = tested on: Mouse microglial cell line (BV-2); experiment: In vitro cytotoxicity, MTT assay (Example 19); details: 0.5, 2 and 8 mM
Description: In vitro cytotoxicity of the conjugate, dendrimer and NAC, at conditions similar to that used in the efficacy assays, was investigated by MTT assay. Mouse microglial cell line (BV-2) was obtained from Children's Hospital of Michigan Cell Culture Facility. These cells were used because the eventual in vivo applications seek to target microglial cells that become activated as a result of neuroinflammation.
The lipopolysaccharide (LPS) was used to activate the cells for the ROS assay. For the cytotoxicity study, the LPS treatment was continuous for 24 hours. For both groups, the LPS concentration used was 100 ng/ml. Three concentrations of NAC were studied: 0.5 mM, 2 mM and 8 mM. For the conjugate assays, the concentrations used corresponded to equivalent NAC doses of the free drug treatment groups. Similarly, the dendrimer assays were run by using dendrimer concentrations that were equivalent to conjugate treatments. Control groups included cells receiving only LPS and no other treatment and cells with no LPS or other treatment. The proportion of viable cells in the treated group was compared to that of negative control. The cell viability is expressed as mean±SD of three samples per group, and assessed by t-test.

BV-2 cells [10] = experiment: ROS assay in LPS-activated BV-2 cells, 3 hours pre-treatment (Example 18); type: cell-based, mouse; details: for H2O2 reduction (%): 72 hours LPS following 3 hours treatment; for effect on ROS production: 24 hours LPS following 3 hours pre-treatment, 0.5-8 mM
Protocol: as §2
H2O2 released from BV-2 cells was measured using 10-acetyl-3,7-dihydroxyphenoxazine (Amplex Red), following the manufacturer's instructions (Alexandre et al., 2006; Min et al., 2003). The procedure for cell culture and drug treatment was the same as described in previous section. The supernatant was mixed with 0.05 U/mL of horseradish peroxidase and 1 μM of Amplex Red in 96-well plates. After 30 min incubation, the fluorescence intensity was measured using spectrofluorometry. Excitation and emission wavelengths were 530 nm and 590 nm respectively.

[11] = GSH triggered NAC release from PAMAM dendrimer-NAC conjugates (RP-HPLC); type: physicochemical; details: absence of GSH, or GSH levels in the blood (20 μM)
Solubility in PBS/H2O = type: physicochemical
[12] = GSH triggered NAC release from PAMAM dendrimer-NAC conjugates (RP-HPLC); type: physicochemical
Protocol: Appropriate amounts of PAMAM-S—S-NAC conjugate were dissolved in release media (Citrate or PBS buffers) to form a solution of 1 mg/ml PAMAM-S—S-NAC. One of the thiol containing molecules (GSH, Cys or BSA) was added to the conjugates to form 10 mM, 2 mM, 0.5 mM 0.1 mM or 2 μM overall thiol group concentrations and to initiate the release of NAC. All samples were run as triplicates for statistical analysis.
As control samples, conjugates were analyzed in both release media in the absence of reducing agents. The solutions were kept at 37° C. and stirred continuously. At predetermined time intervals, […] of samples were withdrawn and immediately analyzed with RP-HPLC and the concentrations of analytes were determined by using appropriate calibrations prepared under same conditions.
Dendrimer NAC conjugates were analyzed for their drug release mechanism and kinetics in the presence of GSH, Cys and BSA. Buffer solutions with pH 5 (Citrate Buffer) and pH 7.4 (Phosphate Buffered Saline) containing various concentrations of these thiol containing moieties were used in release studies.
All GSH concentrations studied were between average plasma (2 μM) and intracellular (2-10 mM) GSH levels. Various GSH concentrations were used in order to determine the GSH dependent release kinetics of the conjugate. The conjugate solutions contained 730 μM NAC in the conjugated form (1 mg/ml PAMAM-S—S-NAC) at the beginning of the release studies. GSH concentration in the release media was compared to the conjugated NAC concentrations in the release solutions for analysis of the release kinetics and mechanism.
The release of NAC from the conjugates was investigated in the presence of GSH at intracellular and extracellular concentrations. It was assumed that the release of NAC would occur by the disulfide exchange reaction. GSH and its oxidized form (GSSG) are responsible for forming the intracellular redox buffer. Intracellularly, GSH takes the role of attacking thiolate moiety and gets oxidized in the process while cleaving the existing disulfide bonds.
as §1

[13] = 10 mM GSH, PBS pH 7.4, within 1 hour

## N[C@@H](CCC(=O)N[C@@H](CS)C(=O)NCC(=O)O)C(=O)O [GSH, glutathione]
[1]
  converted to oxidized form: 25%
[2]
  pKa of thiol group: ~8.8

## CC(=O)N[C@@H](CS)C(=O)O [NAC, N-acetyl-L-cysteine, reference compound]
BV-2 cells [3]; 0.5 mM
  Nitrite reduction (%): 10.52 ± 6.43%
BV-2 cells [3]; 2 mM
  Nitrite reduction (%): 34.66 ± 3.22%
BV-2 cells [3]; 8 mM
  reduction of nitrite release: ~70%
  Nitrite reduction (%): 72.70 ± 5.56%
BV-2 cells [4]; 0.5 mM
  TNF-α reduction (%): 34.98 ± 2.43%
BV-2 cells [4]; 2 mM
  TNF-α reduction (%): 35.13 ± 4.44%
BV-2 cells [4]; 8 mM
  TNF-α reduction (%): 44.57 ± 4.35%
BV-2 cells [5]
  reduction of nitrite levels: 30-40%
Microglial cells
  cytotoxicity: relatively nontoxic
BV-2 cells [6]; 0.5 mM NAC (equivalent), 24 hours
  reduction in H2O2 levels: 6%
BV-2 cells [6]; 0.5 mM NAC (equivalent), 72 hours
  reduction in H2O2 levels: 7%
BV-2 cells [6]; 8 mM, 24 hours
  reduction in H2O2 levels: 57%
BV-2 cells [6]; 8 mM, 72 hours
  reduction in H2O2 levels: 125%
[1]
  converted to oxidized form: 25%
BV-2 cells [7]
  reduction of H2O2 levels: 30-40%
[8]; in the blood stream
  biological half-life: 1.5 hours
[8]; reduced by binding to plasma proteins
  bioavailability: less than 8%
[9]
  cytotoxicity: no cytotoxicity
BV-2 cells [10]; 0.5 mM
  H2O2 reduction (%): 5.54 ± 6.38%
BV-2 cells [10]; 2 mM
  H2O2 reduction (%): 22.28 ± 8.33%
BV-2 cells [10]; 8 mM
  H2O2 reduction (%): 41.31 ± 2.33%
BV-2 cells [10]
  effect on ROS production: did not affect ROS production

## PAMAM-CO-GS—S-NAC [PAMAM-(COOH)46-(NAC)18]
BV-2 cells [3]; 0.5 mM NAC equivalent
  reduction of nitrite release: ~61%
BV-2 cells [3]; 0.5 mM
  Nitrite reduction (%): ~60%
BV-2 cells [3]; 0.5 mM, listed as D-NAC
  Nitrite reduction (%): 60.82 ± 6.05%
BV-2 cells [3]; 2 mM
  Nitrite reduction (%): 64.85 ± 5.12%
BV-2 cells [3]; 8 mM
  Nitrite reduction (%): 75.75 ± 1.85%
BV-2 cells [3]; lowest conjugate dose 0.5 mM NAC
  free drug dosage with comparable activity relative to conjugate dose (8 mM vs 0.5 mM): 16 ×
BV-2 cells [4]; 0.5 mM
  TNF-α reduction (%): ~67%
BV-2 cells [4]; 0.5 mM, listed as D-NAC
  TNF-α reduction (%): 67.46 ± 3.91%
BV-2 cells [4]; 2 mM
  TNF-α reduction (%): 74.43 ± 3.54%
BV-2 cells [4]; 8 mM
  TNF-α reduction (%): 77.37 ± 3.31%
[11]
  drug release: no drug release
Microglial cells
  cytotoxicity: relatively nontoxic; also recorded: non-toxic
Solubility in PBS/H2O
  Solubility in PBS/H2O: Highly
[12]; [13]
  NAC payload in GS-S-NAC (NAC-GSH) form: 6%
  NAC payload released in free form: 39%
  total NAC release: 45%
[12]; 10 mM GSH, at 17 hours
  NAC payload in GS-S-NAC form: 6%
  free NAC content: 46%
[12]; PBS buffer without GSH, 17 hours
  NAC release: did not release any of the NAC they carried
[12]; plasma GSH concentration (2 μM)
  NAC payload found as GS-S-NAC or NAC-NAC: 1%
[12]; plasma GSH concentration (2 μM), 17 hours
  release of free NAC: did not release any detectable levels of free NAC
BV-2 cells [10]; 0.5 mM
  H2O2 reduction (%): 25%
BV-2 cells [10]; 0.5 mM, listed as D-NAC
  H2O2 reduction (%): 30.81 ± 8.08%
BV-2 cells [10]; 2 mM
  H2O2 reduction (%): 51.13 ± 4.93%
BV-2 cells [10]; 8 mM
  H2O2 reduction (%): 68%
BV-2 cells [10]; 8 mM, listed as D-NAC
  H2O2 reduction (%): 68.75 ± 4.14%
BV-2 cells [10]
  effect on ROS production: significant inhibition of ROS production at 2 mM and 8 mM
